Read-outs that look alike come from different tables or passages of the source.
Assays:
[1] = biological target: T1, aminopeptidase M (Sus scrofa, UniProt P15145); experiment: Inhibition of aminopeptidase M; assay type: biochemical
T1 sequence (P15145 1-963): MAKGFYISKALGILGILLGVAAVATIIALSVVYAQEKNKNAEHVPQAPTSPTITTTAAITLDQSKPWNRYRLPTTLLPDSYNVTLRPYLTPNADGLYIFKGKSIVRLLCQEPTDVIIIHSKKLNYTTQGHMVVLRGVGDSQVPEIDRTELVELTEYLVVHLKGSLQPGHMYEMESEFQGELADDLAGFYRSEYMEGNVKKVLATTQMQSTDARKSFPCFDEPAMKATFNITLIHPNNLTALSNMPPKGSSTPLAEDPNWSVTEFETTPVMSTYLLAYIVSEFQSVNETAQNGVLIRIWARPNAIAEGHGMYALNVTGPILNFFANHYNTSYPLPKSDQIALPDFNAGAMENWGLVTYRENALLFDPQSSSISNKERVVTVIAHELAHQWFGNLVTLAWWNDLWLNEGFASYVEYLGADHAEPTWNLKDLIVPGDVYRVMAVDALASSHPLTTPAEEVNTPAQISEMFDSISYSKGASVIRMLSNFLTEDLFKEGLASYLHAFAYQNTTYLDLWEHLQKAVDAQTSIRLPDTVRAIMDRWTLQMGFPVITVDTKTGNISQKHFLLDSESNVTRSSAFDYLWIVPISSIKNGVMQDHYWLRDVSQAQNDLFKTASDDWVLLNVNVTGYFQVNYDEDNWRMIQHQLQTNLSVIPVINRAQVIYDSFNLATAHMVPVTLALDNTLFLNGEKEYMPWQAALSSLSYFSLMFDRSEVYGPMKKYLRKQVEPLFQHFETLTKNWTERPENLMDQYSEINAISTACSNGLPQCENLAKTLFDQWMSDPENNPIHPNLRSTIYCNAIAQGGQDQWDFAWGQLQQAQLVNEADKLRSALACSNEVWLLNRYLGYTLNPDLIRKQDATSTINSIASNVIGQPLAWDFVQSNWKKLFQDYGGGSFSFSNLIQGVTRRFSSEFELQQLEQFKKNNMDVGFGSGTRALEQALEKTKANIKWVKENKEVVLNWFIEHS

[2] = biological target: cytosolic leucine aminopeptidase; experiment: Inhibition of cytosolic leucine aminopeptidase; assay type: biochemical
[3] = system: Thromboxane B2 (TXB2); experiment: Inhibition of thromboxane B2 (TXB2) in calcium ionophore A-23187-stimulated human blood; assay type: cell-based
Description: (§4) Blood was drawn from a human volunteer, and a compound solution at one of three concentrations (Table 3) or a single concentration (Table 4), or solution alone (vehicle) was added to a one ml aliquot of the blood. After incubation for 15 minutes, 14 μg of calcium ionophore A-23187 (as the free acid) was added, and the incubation continued for another 15 minutes. The reactions were stopped by immersion of the containers into slush ice, and the samples were centrifuged at 11,000 ×g to pellet red cells and leukocytes. An aliquot of the plasma was then assayed for the presence of thromboxane B2 or leukotriene B4 by standard radioimmunoassay techniques.

[4] = system: Leukotriene B4 (LTB4); experiment: Inhibition of leukotriene B4 (LTB4) in calcium ionophore A-23187-stimulated human blood; assay type: cell-based
Description: as §4

[5] = system: 15-lipoxygenase; experiment: Inhibition of 15-lipoxygenase in A-23187-stimulated PMNL with exogenous arachidonic acid; assay type: cell-based
Source text: (§1) Compounds 24 and 27 were also studied for their abilities to inhibit 5- and 15-lipoxygenase using calcium ionophore A-23187-stimulated polymorphonuclear leukocytes (PMNL) in the presence of exogenous arachidonic acid. […] LTC4 Synthase activity in human platelets was also not inhibited.

[6] = system: LTC4 Synthase; experiment: Inhibition of LTC4 synthase activity in human platelets; assay type: cell-based
Source text: as §1

[7] = system: LTB4 Formation in intact PMNL; experiment: LTB4 formation in calcium ionophore A-23187-stimulated intact PMNL; assay type: cell-based; conditions: for IC50: Homo sapiens, PMNL, calcium ionophore A-23187-stimulated, dose dependent
[8] = biological target: T2, LTA4 hydrolase (epoxide hydrolase activity) (Homo sapiens, UniProt P09960); experiment: Inhibition of epoxide hydrolase activity of LTA4 hydrolase, LTA4 as substrate; assay type: biochemical; conditions: Table 5; read-out: IC50 Epoxide Hydrolase
T2 construct: obtained from human leukocytes and was purified to apparent homogeneity; from tissue; host or cells: human leukocytes (purified to apparent homogeneity)
T2 sequence (P09960 1-611): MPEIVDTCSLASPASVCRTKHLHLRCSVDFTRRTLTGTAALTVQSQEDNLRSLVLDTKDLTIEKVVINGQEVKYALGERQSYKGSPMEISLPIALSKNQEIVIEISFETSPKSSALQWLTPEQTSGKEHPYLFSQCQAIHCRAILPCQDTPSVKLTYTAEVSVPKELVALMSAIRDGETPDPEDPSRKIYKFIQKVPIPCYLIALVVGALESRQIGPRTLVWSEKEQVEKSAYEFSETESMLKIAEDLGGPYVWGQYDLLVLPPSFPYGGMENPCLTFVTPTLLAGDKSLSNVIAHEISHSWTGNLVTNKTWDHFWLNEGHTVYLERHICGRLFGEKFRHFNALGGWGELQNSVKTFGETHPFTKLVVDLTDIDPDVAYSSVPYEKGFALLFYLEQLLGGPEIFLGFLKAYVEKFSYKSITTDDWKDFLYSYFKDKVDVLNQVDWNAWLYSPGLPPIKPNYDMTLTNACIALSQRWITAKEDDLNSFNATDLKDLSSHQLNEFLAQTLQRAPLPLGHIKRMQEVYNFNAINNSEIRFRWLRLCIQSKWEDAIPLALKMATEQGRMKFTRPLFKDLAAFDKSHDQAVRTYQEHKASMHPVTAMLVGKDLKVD
Description: Aliquots of enzyme (2.5 mg) were preincubated for 30-40 minutes at room temperature in 100 mL of 50 mM HEPES, pH 8, containing various amounts of the respective inhibitor. […] After addition of 200 ng PGB1 (internal standard), samples were acidified to pH value of 3 with 0.1M HCl, extracted on Chromabond C18 columns (Mackerey & Nagel), and finally analyzed on a computerized Waters HPLC system. The column (Radial-Pak C18 cartridge, 100×5 mm, Waters) was eluted with a mixture of methanol/water/acetic acid (70:30:0.01, v/v) at a flow rate of 1.2 mL/minutes. The UV absorbance of the eluate was monitored continuously at 270 nm. Amounts of LTB4 were computer calculated from peak area ratios between LTB4 and the internal standard PGB1. Peak area ratios were converted into molar ratios from comparisons with standard curve constructed from injections of known amounts of the respective compound.

[9] = biological target: T3, LTA4 hydrolase (Homo sapiens, UniProt P09960); experiment: Inhibition of LTA4 hydrolase, amidase (aminopeptidase) activity, L-alanyl p-nitroanilide as substrate; assay type: biochemical; parameters: LTA4 hydrolase purified from human leukocytes; from tissue; host or cells: human leukocytes (purified enzyme)
T3 sequence (P09960 1-611): T2 sequence (P09960 1-611)
Description: ^a All assays were performed in TrisHCl buffer (0.05 M, pH 8.0) with
Lalanyl pnitroanilide (1.5 mM) as substrate unless otherwise indicated.
for each assay (final volume = 1.0 mL). pNitroaniline formation was
monitored spectrophotometrically at 405 nm. Thiol compounds were assayed
in the presence of 5 mM DTT. The values shown are within ± 5 percent
accuracy. Dixon plot was used to determine the Ki values.

[10] = biological target: cyclooxygenase; conditions: read-out: IC50, cyclooxygenase production of PGD2; cited from earlier work
[11] = biological target: 5-lipoxygenase; conditions: read-out: IC50, 5-lipoxygenase production of 5-HETE; cited from earlier work
[12] = substrate: N=C(N)NCCC[C@H](N)C(=O)Nc1ccc([N+](=O)[O-])cc1; experiment: purified protein, by the assay type; conditions: other: Table 1, 50 mM TrisCl, pH 7.6, 0.1 M NaCl
[13] = substrate: CC(C)C[C@H](N)C(=O)Nc1ccc([N+](=O)[O-])cc1; experiment: Kinetic parameters of LTA4 hydrolase-catalyzed hydrolysis of LTA4 and amide substrates; assay type: biochemical; conditions: other: Table 1, 50 mM TrisCl, pH 7.6, 0.1 M NaCl
Description: (§2) Several amino acid amides were assayed as substrates for LTA4 hydrolase. Yuan et al., Bioorg. & Med. Chem. Lett., 1:551 (1991).
(§3) ^a Determined in 50 mM TrisCl, pH 7.6, in the presence of 0.1 M NaCl, […]

[14] = substrate: CCCCC/C=C\C\C=C/C=C/C=C/[C@@H]1O[C@H]1CCCC(=O)O; experiment: as above; assay type: biochemical; conditions: other: Table 1, 50 mM TrisCl, pH 7.6, 0.1 M NaCl
Description: as §2, §3

[15] = substrate: C[C@H](N)C(=O)Nc1ccc([N+](=O)[O-])cc1; experiment: as above; assay type: biochemical; conditions: other: Table 1, 50 mM TrisCl, pH 7.6, 0.1 M NaCl
Description: as §2, §3

[16] = substrate: NCCCC[C@H](N)C(=O)Nc1ccc([N+](=O)[O-])cc1; experiment: as above; assay type: biochemical; conditions: other: Table 1, 50 mM TrisCl, pH 7.6, 0.1 M NaCl
Description: as §2, §3

[17] = substrate: O=C(Nc1ccc([N+](=O)[O-])cc1)[C@@H]1CCCN1; experiment: as above; assay type: biochemical; conditions: other: Table 1, 50 mM TrisCl, pH 7.6, 0.1 M NaCl
Description: as §2, §3

[18] = read-out: % Inhibition TXB2, Table 4, 10 μM
[19] = Homo sapiens, read-out: % Inhibition LTB4, Table 3
[20] = Homo sapiens, read-out: % Inhibition LTB4, Table 4
[21] = Homo sapiens, Table 3, read-out: % Inhibition LTB4

N[C@@H](Cc1ccc(OCc2ccccc2)cc1)[C@H](O)C(=O)OCc1ccccc1 [Compound 24]
IC50 [1]: > 100000 nM
IC50 [2]: 80000 nM
inhibition at 1 µM ([3]; read-out: % Inhibition TXB2, Table 3, 1 μM): 0%
inhibition at 3 µM ([3]; read-out: % Inhibition TXB2, Table 3, 3 μM): 17%
inhibition at 10 µM ([3]; read-out: % Inhibition TXB2, Table 3, 10 μM): 4%
inhibition at 10 µM [3, 18]: 0%
inhibition at 1 µM [4, 19]: 7%
inhibition at 3 µM [4, 19]: 44%
inhibition at 10 µM [4, 19]: 39%
inhibition at 10 µM [4, 20]: 18%
inhibition of 15-lipoxygenase activity (in words) [5]: No inhibition
inhibition of LTC4 synthase activity (in words) [6]: not inhibited
IC50 [7]: 100 to 200 nM
activity in intact PMNL compared with isolated enzyme (in words) ([7]; intact PMNL versus isolated enzyme): unexpectedly much more active in this assay using intact PMNL than in assays with the isolated enzyme

COC(=O)C(=O)[C@@H](N)Cc1ccc(OCc2ccccc2)cc1 [Compound 25]
IC50 [8]: 100000 nM
IC50 [1]: 80000 nM
inhibition at 1 µM ([3]; Table 3, 1 μM, read-out: % Inhibition TXB2): 25%
inhibition at 3 µM ([3]; Table 3, 3 μM, read-out: % Inhibition TXB2): 20%
inhibition at 10 µM ([3]; Table 3, 10 μM, read-out: % Inhibition TXB2): 41%
inhibition at 1 µM [4, 21]: 29%
inhibition at 3 µM [4, 21]: 59%
inhibition at 10 µM [4, 21]: 39%
tightness of binding to the enzyme relative to Compound 23 ([9]; Compound 25 versus Compound 23): 30 times
IC50 ([9]; L-alanyl p-nitroanilide 1.5 mM, pH 8.0, thiols with 5 mM DTT): 600 nM
selectivity for LTA4 binding (in words) ([9]; versus other aminopeptidases): selective for LTA4 binding

Cl.N[C@H](CS)Cc1ccc(OCc2ccccc2)cc1 [Compound 27, (2S)-3-[4-(benzyloxy)phenyl]-2-amino-propanethiol HCl]
IC50 [2]: > 50000 nM
inhibition at 10 µM [3, 18]: 100%
inhibition at 10 µM [4, 20]: 100%
IC50 ([4]; Homo sapiens, read-out: IC50 in this assay (human blood)): ~1100 nM
inhibition of 15-lipoxygenase activity (in words) [5]: No inhibition
inhibition of LTC4 synthase activity (in words) [6]: not inhibited
IC50 [7]: 100 to 200 nM

COc1ccc(-n2nc(CCC(=O)N(C)O)cc2-c2ccc(Cl)cc2)cc1 [Tepoxalin]
potency in the blood eicosanoid assay (in words) ([4]; Table 3 assay system): more potent than any compound in this table
IC50 [10]: 200 nM
IC50 [11]: 1290 nM

B1: LTA4 hydrolase (Homo sapiens) (protein)
chain: T2 sequence (P09960 1-611)
Km [12]: 200 µM
Vmax [12]: 135 nmol/min/mg
Km [13]: 300 µM
Vmax [13]: 135 nmol/min/mg
Km [14]: 7.6 µM
Km [15]: 500 µM
Vmax [15]: 530 nmol/min/mg
Km [16]: 100 µM
Vmax [16]: 30 nmol/min/mg
Km [17]: 100 µM
Vmax [17]: 135 nmol/min/mg
